Laboratory results: patent US20110065734A1, “NOVEL BIFUNCTIONAL COMPOUNDS WHICH INHIBIT PROTEIN KINASES AND HISTONE DEACETYLASES” (4SC AG, priority 2007, published 2011)
pEC50, pIC50: −log10 of the molar value. Counter-ions that a name gives are not always drawn. Like-named read-outs stand apart in the source and are kept apart here.

Columns and labels:
[1] = test system: A549 NSCLC cell line; test: Cellular cytotoxicity assay (Alamar Blue), A549; assay type: cell-based; conditions: Homo sapiens; for pIC50: A549, 72 h, only a range over the listed compounds is given, read-out: Cytotoxicity towards A549 NSCLC cell line IC50
Protocol: (§1) The anti-proliferative activity of the chimeric HDAC and protein kinase inhibitory chimeric compounds of the present invention was evaluated using HeLa cervical carcinoma, A549 NSCLC, SKOV3 ovarian carcinoma, Cal27 head and neck cancer, K562 chronic myeloid leukemia (CML) and EOL1 acute hypereosinophilic myeloid leukemia, cell lines. For quantification of cellular proliferation/living cells the Alamar Blue (Resazurin) cell viability assay was applied (O'Brien et al. Eur Biochem. 267, 5421-5426, 2000). In this assay Resazurin is reduced to the fluorescent resorufin by cellular dehydrogenase activity, correlating with viable, proliferating cells. The examples were dissolved as 20 mM solutions in dimethylsulfoxide (DMSO) and subsequently diluted in semi-logarithmic steps. Cell lines were seeded at respective density into 96 well flat bottom plates in a volume of 200 μl per well. 24 h after seeding 1 μl each of the compound dilutions were added into each well of the 96 well plate. Each compound dilution was tested as quadruplicates. Wells containing untreated control cells were filled with […] DMEM medium containing 0.5% v:v DMSO. The cells were then incubated with the substances for 72 h at 37° C. in a humidified atmosphere containing 5% carbon dioxide. To determine the viability of the cells, 20 μl of an Resazurin solution (Sigma; 90 mg/l) were added. After 4 h incubation at 37° C. the fluorescence was measured at an extinction of 544 nm and an emission of 590 nm. For the calculation of the cell viability the emission value from untreated cells was set as 100% viability and the emission rates of treated cells were set in relation to the values of untreated cells. Viabilities were expressed as % values. The corresponding IC50 values of the compounds for cytotoxic activity are determined from the concentration-effect curves by means of non-linear regression.

[2] = test system: HeLa cervical carcinoma cell line; test: Cellular cytotoxicity assay (Alamar Blue), HeLa; assay type: cell-based; conditions: Homo sapiens, 72 h; for pIC50: only a range over the listed compounds is given, read-out: Cytotoxicity towards HeLa cervical cell line IC50
Protocol: as §1

[3] = biological target: T1, recombinant HDAC1 isolated from HEK293 cells with heterologous HDAC1 expression (Homo sapiens, UniProt Q13547); test: Fluorimetric rHDAC1 activity assay; assay type: biochemical; conditions: only a range of IC50 over the compounds given; read-out: rHDAC1 inhibitory activity IC50
T1 construct: made in house

[4] = test system: Cal27 head and neck cancer cell line; test: Cellular cytotoxicity assay (Alamar Blue), Cal27; assay type: cell-based; conditions: Homo sapiens; for pIC50: CAL-27, 72 h, only a range over the listed compounds is given, read-out: Cytotoxicity towards Cal27 cell line IC50
Protocol: as §1

[5] = test system: SKOV3 ovarian carcinoma cell line; test: Cellular cytotoxicity assay (Alamar Blue), SKOV3; assay type: cell-based; conditions: Homo sapiens
Protocol: as §1

[6] = test system: EOL1 acute hypereosinophilic myeloid leukemia cell line; test: Cellular cytotoxicity assay (Alamar Blue), EOL1; assay type: cell-based; conditions: Homo sapiens, 72 h, only a range over the listed compounds is given, read-out: Cytotoxicity towards EOL1 cell line IC50
Protocol: as §1

[7] = biological target: T2, PDGFRβ (Homo sapiens, UniProt P09619); test: Biochemical flash-plate based kinase assay, PDGFRβ; conditions: only a range over the listed compounds is given; read-out: PDGFRβ inhibition IC50
T2 construct: purchased ProQinase, Freiburg/Germany
From the text: (§2) Active kinase proteins were either obtained from commercial suppliers (Abl, PDGF-Rβ ProQinase, Freiburg/Germany; AblT^315I: Millipore/Upstate, Billerica/USA; PKA: InvitroGen/Panvera, Carlsbad/USA) or prepared in-house (KDR, c-terminal kinase domain AA790-1356, HER2 c-terminal kinase domain, EGFR/HER1 C-terminal kinase domain). As substrates, poly-AGKY for Abl, AblT^315I and PDGF-Rβ (#P-1152 Sigma, Munich/Germany), poly-GluTyr for KDR, HER2 and EGFR/HER1 (#P-0275, Sigma, Munich/Germany) or a PKA substrate peptide for PKA (#12-394, Millipore/Upstate, Billerica/USA) were used. Into each well of a 96-well flashplate (#SMP-200 in the case of Abl, Abl T^315I, PDGF-Rβ, EGFR, HER2 and KDR, #SMP-103 in the case of PKA; Perkin Elmer, Waltham/USA) kinase protein was diluted into kinase assay buffer (50 mM HEPES pH 7.5, 3 mM MgCl2, 3 mM MnCl2, 1 mM DTT, 3 μM sodium orthovanadate, 5 μg/ml PEG 8000) containing the appropriate substrate (final volume 89 μl). DMSO vehicle or compounds are added as 1 μl/well prior to the initiation of the kinase reaction by 10 μl 1 mM [^33P]-γATP (4×10^5 cpm). Reactions were allowed to proceed for a time predetermined to be linear on a time versus phosphorylation plot (30 min for PKA, otherwise 80 min) and terminated with the addition of an equal volume of phosphoric acid (2% H3PO4 for 5 minutes). Plates were washed three times with 0.9% w/v NaCl and quantitated by liquid scintillation counting.

[8] = test system: histone H3 hyperacetylation in HeLa cervical carcinoma cells; test: Cellular histone H3 hyperacetylation assay; assay type: cell-based; conditions: Homo sapiens, 24 h, only a range over the listed compounds is given, read-out: Induction of histone H3 hyperacetylation in HeLa cervical carcinoma cells EC50
From the text: To assess the cellular efficacy of a histone deacetylase inhibitor in vitro, an assay was set up in black clear-bottom 96-well plates and optimized for use on the Cellomics “ArrayScan II” platform for a quantitative calculation of histone acetylation. The protocol uses a polyclonal rabbit antibody, specifically binding to acetylated lysine 1-20 of human histone H3 on fixed cells with an Alexa Fluor 488 labeled goat anti rabbit-IgG used for counterstaining (Beckers et al. Int J. Cancer 121, 1138, 2007).
5×10^3 HeLa cervical carcinoma cells/well (ATCC. CCL-2) in 200 μl Dulbecco rs modified Eagle's medium (DMEM) containing 10% fetal calf serum are seeded at day 1 in Packard view plates and incubated for 24 h under standard cell culture conditions. On day 2, 1 μl test compound (200× final concentration) is added and incubation continued for further 24 h. On day 3, the culture medium is discarded and attached cells fixed for 15 min at room temperature by addition of 100 μl fixation buffer (3.7% v:v formaldehyde in phosphate buffered saline/PBS). After discarding the fixation buffer and one wash with blocking solution (1% BSA, 0.3% Tween 20 in PBS), cells are permeabilized at room temperature by addition of 100 μl/well permeabilization buffer (30.8 mM NaCl, 0.54 mM Na2HPO4, 0.31 mM KH2PO4, 0.1% v:v Triton X-100) for 15 min at room temperature. After discarding the permeabilization buffer and washing twice with 100 μl/well blocking solution at room temperature, the 1st antibody (anti-K^1-20 histone H3 antibody, Calbiochem No. 382158) in blocking solution (50 μl/well) is added. After incubation for 1 h at room temperature, the wells are washed twice at room temperature with 100 μl/well blocking solution before addition of the 2nd antibody (goat-anti-rabbit Alexa Fluor 488; MoBiTec No. A-11008) in blocking solution (50 μl/well). After further incubation for 1 h at room temperature, wells are washed twice with 100 μl/well blocking solution at room temperature. Finally, 100 μl/well PBS are added and image analysis performed on the Cellomics “ArrayScan II” platform. For EC50 determination, the percentage of positive cells showing nuclear fluorescence is determined and EC50 calculation done from concentration-effect curves by means of non-linear regression. For calibration, a positive (reference HDAC inhibitors like SAHA or NVP LBH-589) and a negative control were included.

[9] = test system: K562 chronic myeloid leukemia (CML) cell line; test: Cellular cytotoxicity assay (Alamar Blue), K562; assay type: cell-based; conditions: Homo sapiens, 72 h, only a range over the listed compounds is given, read-out: Cytotoxicity towards K562 CML cell line IC50
Protocol: as §1

[10] = biological target: T3, Bcr-abl T^315I (Homo sapiens, UniProt P00519, T315I); test: Biochemical flash-plate based kinase assay, Bcr-abl T315I; conditions: only a range over the listed compounds is given; read-out: Bcr-abl T^315I inhibition IC50
T3 construct: purchased Millipore/Upstate, Billerica/USA
From the text: as §2

[11] = biological target: T4, Bcr-abl (wt) (Homo sapiens, UniProt P00519); test: Biochemical flash-plate based kinase assay, Bcr-abl (wt); conditions: only a range over the listed compounds is given; read-out: Bcr-abl (wt) inhibition IC50
T4 construct: purchased ProQinase, Freiburg/Germany
T4 sequence (P00519 118-553 limits assumed): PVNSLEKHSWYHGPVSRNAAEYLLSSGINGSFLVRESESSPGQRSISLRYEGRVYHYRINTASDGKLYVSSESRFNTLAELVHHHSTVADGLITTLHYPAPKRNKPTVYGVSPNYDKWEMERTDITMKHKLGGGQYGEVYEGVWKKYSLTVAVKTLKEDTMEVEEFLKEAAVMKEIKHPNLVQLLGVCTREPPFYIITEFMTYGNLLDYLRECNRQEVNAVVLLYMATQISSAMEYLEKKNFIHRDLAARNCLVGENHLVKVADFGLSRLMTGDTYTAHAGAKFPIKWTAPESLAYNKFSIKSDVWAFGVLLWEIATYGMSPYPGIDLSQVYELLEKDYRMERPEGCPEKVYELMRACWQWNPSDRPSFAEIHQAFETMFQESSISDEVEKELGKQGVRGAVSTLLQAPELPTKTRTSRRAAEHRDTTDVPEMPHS
From the text: as §2

T1 sequence (Q13547 whole entry): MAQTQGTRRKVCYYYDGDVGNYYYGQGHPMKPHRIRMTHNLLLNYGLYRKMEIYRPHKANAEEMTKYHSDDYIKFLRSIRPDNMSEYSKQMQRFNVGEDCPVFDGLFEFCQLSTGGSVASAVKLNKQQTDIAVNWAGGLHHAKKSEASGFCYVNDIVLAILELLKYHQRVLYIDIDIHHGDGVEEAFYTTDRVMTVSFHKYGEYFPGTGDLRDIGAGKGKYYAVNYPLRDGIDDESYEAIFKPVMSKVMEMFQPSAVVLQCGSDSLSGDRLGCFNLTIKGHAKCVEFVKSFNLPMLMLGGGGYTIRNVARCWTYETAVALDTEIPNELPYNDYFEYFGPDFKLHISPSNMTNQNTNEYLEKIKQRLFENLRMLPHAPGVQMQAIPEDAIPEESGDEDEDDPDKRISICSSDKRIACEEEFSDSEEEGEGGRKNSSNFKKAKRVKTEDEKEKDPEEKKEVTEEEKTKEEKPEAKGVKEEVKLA
T2 sequence (P09619 33-1106): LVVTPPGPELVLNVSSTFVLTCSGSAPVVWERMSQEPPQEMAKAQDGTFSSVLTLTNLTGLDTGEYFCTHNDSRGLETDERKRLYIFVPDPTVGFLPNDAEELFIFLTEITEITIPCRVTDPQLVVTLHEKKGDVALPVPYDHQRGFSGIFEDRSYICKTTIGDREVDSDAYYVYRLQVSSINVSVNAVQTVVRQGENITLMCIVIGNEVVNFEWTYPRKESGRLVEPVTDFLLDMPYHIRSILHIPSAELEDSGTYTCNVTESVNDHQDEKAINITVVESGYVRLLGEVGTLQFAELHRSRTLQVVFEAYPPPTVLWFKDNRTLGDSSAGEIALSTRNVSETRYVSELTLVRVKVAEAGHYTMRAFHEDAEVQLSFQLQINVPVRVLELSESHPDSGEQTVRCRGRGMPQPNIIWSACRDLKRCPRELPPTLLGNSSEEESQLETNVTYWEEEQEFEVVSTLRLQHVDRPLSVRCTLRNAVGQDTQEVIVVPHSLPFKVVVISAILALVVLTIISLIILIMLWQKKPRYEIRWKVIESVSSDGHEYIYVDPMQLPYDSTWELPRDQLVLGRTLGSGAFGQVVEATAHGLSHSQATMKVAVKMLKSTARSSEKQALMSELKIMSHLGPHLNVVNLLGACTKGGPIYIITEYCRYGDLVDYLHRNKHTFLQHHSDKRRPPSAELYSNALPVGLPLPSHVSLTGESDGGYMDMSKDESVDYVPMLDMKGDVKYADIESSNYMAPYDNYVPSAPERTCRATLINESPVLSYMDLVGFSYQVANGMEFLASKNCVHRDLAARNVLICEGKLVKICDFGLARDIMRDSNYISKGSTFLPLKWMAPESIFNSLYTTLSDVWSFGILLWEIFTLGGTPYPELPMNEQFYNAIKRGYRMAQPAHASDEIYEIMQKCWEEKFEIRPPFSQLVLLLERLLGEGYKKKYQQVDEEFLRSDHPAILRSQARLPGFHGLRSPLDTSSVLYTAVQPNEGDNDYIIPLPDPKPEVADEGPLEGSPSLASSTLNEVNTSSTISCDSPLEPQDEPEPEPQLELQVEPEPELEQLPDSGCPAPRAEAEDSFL

Row | pIC50 [3] | pIC50 [7] | melting point [°C] | Structure (SMILES) | pIC50 [1] | pIC50 [6] | pIC50 [2] | pIC50 [9] | also measured
1 | – | 4.15 to 5.68 | – | Cc1ccc(NC(=O)c2ccc(C(=O)Nc3ccccc3N)cc2)cc1Nc1nccc(-c2cccnc2)n1 [[14], N-(2-Amino-phenyl)-N′-[4-methyl-3-(4-pyridin-3-yl-pyrimidin-2-ylamino)-phenyl]-terephthalamide compound with trifluoroacetic acid] | – | 6.11 to 8.52 | ≤ 5.94 | – | –
2 | – | – | 280.5 | Cc1ccc(NC(=O)c2ccc(C(=O)Nc3ccccc3N)s2)cc1Nc1nccc(-c2cccnc2)n1 [[26], N^2-(2-aminophenyl)-N^5-(4-methyl-3-(4-(pyridin-3-yl)pyrimidin-2-ylamino)phenyl)thiophene-2,5-dicarboxamide] | ≤ 5.53 | 6.11 to 8.52 | – | 5.39 to 6.31 | –
3 | 5.85 to 7.11 | – | – | CN(C(=O)c1ccc(C(=O)Nc2ccccc2N)cc1)c1ccc(Cl)c(Nc2nccc(-c3cccnc3)n2)c1 [[35], N-(2-Amino-phenyl)-N′-[4-chloro-3-(4-pyridin-3-yl-pyrimidin-2-ylamino)-phenyl]-N′-methyl-terephthalamide] | – | 6.11 to 8.52 | – | 5.39 to 6.31 | –

Further lines, the compound ahead of its results:

Row | Structure (SMILES) | pIC50 [3] | pIC50 [7] | melting point [°C] | pIC50 [1] | pIC50 [6] | pIC50 [2] | pIC50 [9] | also measured
4 | O=C(/C=C/c1ccc(-c2ccc3ncnc(Nc4ccc(OCc5cccc(F)c5)c(Cl)c4)c3c2)cc1)NO [[8], (E)-3-(4-(4-(3-chloro-4-(3-fluorobenzyl-oxy)phenylamino)quinazolin-6-yl)phen-yl)-N-hydroxyacrylamide hydrochloride monohydrate] | ≤ 7.45 | – | – | – | – | – | – | IC50 ([1]; A549, 72 h, read-out: Cytotoxicity towards A549 NSCLC cell line IC50 (M)): ≥ 1.1e-06 M; IC50 ([2]; read-out: Cytotoxicity towards HeLa cervical cell line IC50 (M)): 9.1e-07 to 9.4e-06 M; IC50 ([4]; CAL-27, 72 h, read-out: Cytotoxicity towards Cal27 cell line IC50 (M)): ≥ 2.8e-07 M; IC50 ([5]; SK-OV-3, 72 h, read-out: Cytotoxicity towards SKOV3 cell line IC50 (M)): ≥ 1e-06 M
5 | Nc1ccccc1NC(=O)/C=C/c1cccc(-c2ccc3ncnc(Nc4ccc(OCc5cccc(F)c5)c(Cl)c4)c3c2)c1 [[11], (E)-N-(2-aminophenyl)-3-(3-(4-(3-chloro-4-(3-fluorobenzyloxy)phenylamino)-quinazolin-6-yl)phenyl)acrylamide] | ≤ 7.45 | – | – | ≤ 5.96 | – | – | – | pIC50 [4]: ≤ 6.55
6 | Nc1ccccc1NC(=O)c1ccc(C(=O)Nc2cccc(Nc3nc(-c4cccnc4)cs3)c2)cc1 [[18], N^1-(2-aminophenyl)-N^4-(3-(4-(pyridin-3-yl)thiazol-2-ylamino)phenyl)terephthalamide hydrate] | – | 4.15 to 5.68 | – | – | – | – | – | –
7 | Cc1ccc(NC(=O)c2ccc(C(=O)NO)cc2)cc1Nc1nc(-c2cccnc2)cs1 [[20], N^1-hydroxy-N^4-(4-methyl-3-(4-(pyridin-3-yl)thiazol-2-ylamino)phenyl)terephthalamide] | – | 4.15 to 5.68 | 261 | ≤ 5.53 | – | ≤ 5.94 | – | pEC50 [8]: 5.00 to 5.77
8 | Nc1ccccc1NC(=O)c1ccc(C(=O)Nc2cccc(Nc3nc(-c4cccnc4)cs3)c2)cn1 [[24], N^2-(2-aminophenyl)-N^5-(3-(4-(pyridin-3-yl)thiazol-2-ylamino)phenyl)pyridine-2,5-dicarboxamide] | – | – | 148 to 150 | – | – | – | 5.39 to 6.31 | –
9 | Cc1ccc(NC(=O)c2ccc(/C=C/C(=O)NO)s2)cc1Nc1nc(-c2cccnc2)cs1 [[33], (E)-5-(3-(hydroxyamino)-3-oxoprop-1-enyl)-N-(4-methyl-3-(4-(pyridin-3-yl)thiazol-2-ylamino)phenyl)thiophene-2-carboxamide] | – | – | 241.6 | ≤ 5.53 | – | – | – | pIC50 [10]: 4.47 to 6.00; pIC50 [11]: 4.41 to 5.70
10 | C#Cc1cccc(Nc2ncnc3ccc(S(=O)(=O)n4ccc(/C=C/C(=O)NO)c4)cc23)c1 [[45], 3-{1-[4-(3-Ethynylphenylamino)quinazoline-6-sulfonyl]-1H-pyrrol-3-yl}-N-hydroxy-acrylamide] | – | – | – | ≤ 6.62 | – | ≤ 6.30 | – | pIC50 [4]: 5.10 to 6.80; pIC50 ([5]; SK-OV-3, 72 h, only a range over the listed compounds is given, read-out: Cytotoxicity towards SKOV3 cell line IC50): ≤ 6.25
